± gives the standard deviation of the averaged measurements.
Experiment: TIMS collisional cross section (CCS, N2) of the lipid ion; higher = larger ion cross section
Conditions: ionization mode: positive, one isomer drawn
Description: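 Lipid extracts of human plasma (NIST SRM 1950), mouse liver and HeLa cells were separated by nanoflow C18 LC (30 min gradient, 60 °C) and analysed by TIMS-PASEF on a timsTOF Pro in positive ion mode. Ion mobility was calibrated with the Agilent tuning mix and converted to collisional cross sections (Mason–Schamp) in N2 drift gas. Lipids were identified by MS/MS (SimLipid) and manual curation. SMILES are LIPID MAPS representative structures for the annotated lipid.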

SMILES	TIMS collisional cross section (sample type: Liver)	TIMS collisional cross section (sample type: plasma)	TIMS collisional cross section (sample type: HeLa)
CCCCCC/C=C\CCCCCCCC(=O)OC[C@H](CO)OC(=O)CCCCCCC/C=C\CCCCCCCC [DG 16:1_18:1_0:0] (ion (formula + adduct): [C37H68O5+NH4] 1+)	260 Å²	258.75 ± 1.2 Å²	
CCCCC/C=C\C/C=C\CCCCCCCC(=O)O[C@@H](CO)COC(=O)CCCCCCC/C=C\CCCCCC [DG 16:1_18:2_0:0] (ion (formula + adduct): [C37H66O5+NH4] 1+)	253.1 Å²	253.8 Å²	
CCCCCCCC/C=C\CCCCCCCC(=O)O[C@@H](CO)COC(=O)CCCCCCCCCCCCCCCC [DG 17:0_18:1_0:0] (ion (formula + adduct): [C38H72O5+NH4] 1+)	266 Å²		265.7 Å²
CCCCC/C=C\C/C=C\CCCCCCCC(=O)O[C@@H](CO)COC(=O)CCCCCCCCCCCCCCCC [DG 17:0_18:2_0:0] (ion (formula + adduct): [C38H70O5+NH4] 1+)	262.8 Å²		
CCCCCCCCCCCCCCCCCC(=O)OC[C@H](CO)OC(=O)CCCCCCCCCCCCCCC [DG 18:0_16:0_0:0] (ion (formula + adduct): [C37H72O5+NH4] 1+)	265.6 Å²	265.6 Å²	
CCCCCCCCCCCCCCCCCC(=O)OCC(CO)OC(=O)CCCCCCCCCCCCCCCCC (stereo not given) [DG 18:0_18:0_0:0] (ion (formula + adduct): [C39H76O5+NH4] 1+)		273.4 Å²	272.2 Å²
CCCCCCCC/C=C\CCCCCCCC(=O)O[C@@H](CO)COC(=O)CCCCCCCCCCCCCCCCC [DG 18:0_18:1_0:0] (ion (formula + adduct): [C39H74O5+NH4] 1+)	269.6 Å²		
CCCCC/C=C\C/C=C\C/C=C\CCCCCCC(=O)O[C@@H](CO)COC(=O)CCCCCCCCCCCCCCCCC [DG 18:0_20:3_0:0] (ion (formula + adduct): [C41H74O5+NH4] 1+)	271.8 Å²		
CCCCC/C=C\C/C=C\C/C=C\C/C=C\CCCC(=O)O[C@@H](CO)COC(=O)CCCCCCCCCCCCCCCCC [DG 18:0_20:4_0:0] (ion (formula + adduct): [C41H72O5+NH4] 1+)	270.8 Å²		270.8 Å²
CCCCCCCCCCCCCCCCCCCCCC(=O)O[C@@H](CO)COC(=O)CCCCCCCCCCCCCCCCC [DG 18:0_22:0_0:0] (ion (formula + adduct): [C43H84O5+NH4] 1+)		285.7 Å²	
CCCCCC/C=C/CCCCCCCCCC(=O)OC[C@H](CO)OC(=O)CCCCCCCCCCCCCCC [DG 18:1_16:0_0:0] (ion (formula + adduct): [C37H70O5+H] 1+)			257.7 Å²
CCCCCC/C=C/CCCCCCCCCC(=O)OC[C@H](CO)OC(=O)CCCCCCCCCCCCCCC [DG 18:1_16:0_0:0] (ion (formula + adduct): [C37H70O5+NH4] 1+)	262.85 ± 0.21 Å²	263.1 Å²	262.87 ± 0.64 Å²
CCCCCCCC/C=C\CCCCCCCC(=O)OC[C@H](CO)OC(=O)CCCCCCC/C=C\CCCCCCCC [DG 18:1_18:1_0:0] (ion (formula + adduct): [C39H72O5+NH4] 1+)	265.5 Å²	265.9 ± 0.71 Å²	265.2 Å²
CCCCC/C=C\C/C=C\CCCCCCCC(=O)O[C@@H](CO)COC(=O)CCCCCCC/C=C\CCCCCCCC [DG 18:1_18:2_0:0] (ion (formula + adduct): [C39H70O5+NH4] 1+)	261.3 Å²	261.2 Å²	261.1 Å²
CC/C=C\C/C=C\C/C=C\CCCCCCCC(=O)O[C@@H](CO)COC(=O)CCCCCCC/C=C\CCCCCCCC [DG 18:1_18:3_0:0] (ion (formula + adduct): [C39H68O5+NH4] 1+)		258.8 Å²	258.6 Å²
CCCCCCCC/C=C\CCCCCCCCCC(=O)O[C@@H](CO)COC(=O)CCCCCCC/C=C\CCCCCCCC [DG 18:1_20:1_0:0] (ion (formula + adduct): [C41H76O5+NH4] 1+)	271.8 Å²		
CCCCC/C=C\C/C=C\CCCCCCCCCC(=O)O[C@@H](CO)COC(=O)CCCCCCC/C=C\CCCCCCCC [DG 18:1_20:2_0:0] (ion (formula + adduct): [C41H74O5+NH4] 1+)		268.2 Å²	
CCCCC/C=C\C/C=C\C/C=C\CCCCCCC(=O)O[C@@H](CO)COC(=O)CCCCCCC/C=C\CCCCCCCC [DG 18:1_20:3_0:0] (ion (formula + adduct): [C41H72O5+NH4] 1+)	267 Å²		266.8 Å²
CCCCC/C=C\C/C=C\C/C=C\C/C=C\CCCC(=O)O[C@@H](CO)COC(=O)CCCCCCC/C=C\CCCCCCCC [DG 18:1_20:4_0:0] (ion (formula + adduct): [C41H70O5+NH4] 1+)	266 Å²	265.8 Å²	

SMILES	TIMS collisional cross section (sample type: Liver)	TIMS collisional cross section (sample type: plasma)	TIMS collisional cross section (sample type: HeLa)
CC/C=C\C/C=C\C/C=C\C/C=C\C/C=C\CCCC(=O)O[C@@H](CO)COC(=O)CCCCCCC/C=C\CCCCCCCC [DG 18:1_20:5_0:0] (ion (formula + adduct): [C41H68O5+H] 1+)		271.1 Å²	
CC/C=C\C/C=C\C/C=C\C/C=C\C/C=C\CCCC(=O)O[C@@H](CO)COC(=O)CCCCCCC/C=C\CCCCCCCC [DG 18:1_20:5_0:0] (ion (formula + adduct): [C41H68O5+NH4] 1+)			263.8 Å²
CCCCCCCC/C=C\CCCCCCCCCCCC(=O)O[C@@H](CO)COC(=O)CCCCCCC/C=C\CCCCCCCC [DG 18:1_22:1_0:0] (ion (formula + adduct): [C43H80O5+NH4] 1+)	278.5 Å²		
CCCCC/C=C\C/C=C\C/C=C\C/C=C\CCCCCC(=O)O[C@@H](CO)COC(=O)CCCCCCC/C=C\CCCCCCCC [DG 18:1_22:4_0:0] (ion (formula + adduct): [C43H74O5+NH4] 1+)		273 Å²	
CC/C=C\C/C=C\C/C=C\C/C=C\C/C=C\CCCCCC(=O)O[C@@H](CO)COC(=O)CCCCCCC/C=C\CCCCCCCC [DG 18:1_22:5_0:0] (ion (formula + adduct): [C43H72O5+NH4] 1+)	272.3 Å²		
CC/C=C\C/C=C\C/C=C\C/C=C\C/C=C\C/C=C\CCC(=O)O[C@@H](CO)COC(=O)CCCCCCC/C=C\CCCCCCCC [DG 18:1_22:6_0:0] (ion (formula + adduct): [C43H70O5+NH4] 1+)	269.9 Å²		270 Å²
CCCCC/C=C\C/C=C\CCCCCCCC(=O)OC[C@H](CO)OC(=O)CCCCCCC/C=C\C/C=C\CCCCC [DG 18:2_18:2_0:0] (ion (formula + adduct): [C39H68O5+NH4] 1+)	256.6 Å²	257.1 Å²	
CC/C=C\C/C=C\C/C=C\CCCCCCCC(=O)O[C@@H](CO)COC(=O)CCCCCCC/C=C\C/C=C\CCCCC [DG 18:2_18:3_0:0] (ion (formula + adduct): [C39H66O5+NH4] 1+)	254.2 Å²		
CCCCC/C=C\C/C=C\CCCCCCCC(=O)OC[C@H](CO)OC(=O)CCCCCCCCC/C=C\CCCCCCCC [DG 18:2_20:1_0:0] (ion (formula + adduct): [C41H74O5+NH4] 1+)	268.2 Å²		
CCCCC/C=C\C/C=C\C/C=C\C/C=C\CCCC(=O)O[C@@H](CO)COC(=O)CCCCCCC/C=C\C/C=C\CCCCC [DG 18:2_20:4_0:0] (ion (formula + adduct): [C41H68O5+NH4] 1+)	261.1 Å²	261.6 Å²	
CCCCC/C=C\C/C=C\CCCCCCCC(=O)OC[C@H](CO)OC(=O)CCCCCCCCCCCCCCCCCCCCC [DG 18:2_22:0_0:0] (ion (formula + adduct): [C43H80O5+NH4] 1+)	279.2 Å²		
CCCCC/C=C\C/C=C\CCCCCCCC(=O)OC[C@H](CO)OC(=O)CCCCCCCCCCC/C=C\CCCCCCCC [DG 18:2_22:1_0:0] (ion (formula + adduct): [C43H78O5+NH4] 1+)	275.5 Å²		
CCCCC/C=C\C/C=C\CCCCCCCCCCCC(=O)O[C@@H](CO)COC(=O)CCCCCCC/C=C\C/C=C\CCCCC [DG 18:2_22:2_0:0] (ion (formula + adduct): [C43H76O5+NH4] 1+)	272.5 Å²		
CCCCC/C=C\C/C=C\C/C=C\C/C=C\CCCCCC(=O)O[C@@H](CO)COC(=O)CCCCCCC/C=C\C/C=C\CCCCC [DG 18:2_22:4_0:0] (ion (formula + adduct): [C43H72O5+NH4] 1+)	270.8 Å²		
CC/C=C\C/C=C\C/C=C\C/C=C\C/C=C\CCCCCC(=O)O[C@@H](CO)COC(=O)CCCCCCC/C=C\C/C=C\CCCCC [DG 18:2_22:5_0:0] (ion (formula + adduct): [C43H70O5+NH4] 1+)	266.9 Å²		
CCCCC/C=C\C/C=C\C/C=C\C/C=C\CCCC(=O)O[C@@H](CO)COC(=O)CCCCCCCCCCCCCCCCCC [DG 19:0_20:4_0:0] (ion (formula + adduct): [C42H74O5+NH4] 1+)	274.3 Å²		
CCCCCC/C=C\CCCCCCCC(=O)O[C@@H](CO)COC(=O)CCCCCCC/C=C\CCCCCCCCC [DG 19:1_16:1_0:0] (ion (formula + adduct): [C38H70O5+NH4] 1+)			261.1 Å²
CCCCCCCC/C=C\CCCCCCCC(=O)O[C@@H](CO)COC(=O)CCCCCCC/C=C\CCCCCCCCC [DG 19:1_18:1_0:0] (ion (formula + adduct): [C40H74O5+NH4] 1+)			268.3 Å²
